In US7858657B2 (Proix Pharmaceutical Corp., priority 2004, dated 2010):
“And” between values parts separate entries of the source, which are not always exact repeats. Equal entries are not always repeated. Where two headings read alike, the source gives them in different places.

Columns and labels:
[1] = test system: A-549 lung; experiment: Antitumor activity of wortmannin analogs, A-549 lung tumor (Table 1); format: in vivo
[2] = test system: A-549 human nsc lung cancer xenografts; experiment: Antitumor studies, PX-866 and gefitinib in A-549 xenografts; format: in vivo, scid mice; details: for Tumor T/C %, PX-844 4 hrs before gefitinib / Tumor T/C %: 100 mm3 tumors; for Tumor T/C %: end of dosing period
Protocol: Antitumor Studies. […] When the tumors reached 100 or 600 mm3 the mice were stratified into groups of 8 animals having approximately equal mean tumor volumes and drug administration was started. […] Animals were weighed weekly and tumor diameters were measured twice weekly at right angles (d short and d long) with electronic calipers and tumor volumes calculated by the formula volume=(dshort)2×(dlong))2. When the tumor reached 2,000 mm3 or more, or became necrotic the animals were euthanized.
In vivo antitumor studies. […] Tumors were allowed to grow to a mean volume of […] before drug treatment was started every other day for 14 doses. Antitumor activity is expressed as the % volume of the treated tumor/control tumor (T/C %) at the end of the dosing period. There were 8 mice in each group and all differences are p<0.01.

[3] = test system: tumor phospho-EGFR (A-549 tumor xenografts); format: in vivo, scid mice
[4] = test system: A-549 cells; format: cell-based, human; details: PX-866 at concentrations up to 100 nM
Protocol: (§1) Cells. […] All cell lines were tested to be mycoplasma free using a PCR ELISA kit (Roche Diagnostics Inc., Indianapolis, Ind.).

[5] = test system: HT-29 xenograft phosphor-Akt; experiment: Inhibition of HT-29 xenograft phospho-Akt by wortmannin analogs (pharmacodynamics); format: in vivo
Protocol: The pharmacodynamics of various wortmannin analogs were tested. […] PX-866 was administered intraperitoneal, intravenously and orally.

[6] = test system: Panc-1 pancreatic; experiment: Antitumor activity of cytotoxic drugs alone or combined with PX-866, Panc-1 pancreatic (Table 2); format: in vivo; details: for Alone Growth delay days / Alone TGI % / Alone log cell kill: size 75 mm^3
[7] = test system: phospho-Akt in A-549 cells; experiment: cells; format: cell-based; details: Homo sapiens, A549; A-549 cells in media containing 10% fbs; read-out: IC50, inhibition of phospho-Akt
Protocol: as §1
(§2) Measurement of PtdIns-3-kinase.

[8] = target: T1, p120γ (Homo sapiens, UniProt P48736); experiment: Inhibition of recombinant PtdIns-3-kinase, [32P]-ATP dependent phosphorylation of PtdIns; format: biochemical; details: recombinant enzyme
T1 construct: purchased Upstate (Charlottesville, Va.)
T1 sequence (P48736 whole entry): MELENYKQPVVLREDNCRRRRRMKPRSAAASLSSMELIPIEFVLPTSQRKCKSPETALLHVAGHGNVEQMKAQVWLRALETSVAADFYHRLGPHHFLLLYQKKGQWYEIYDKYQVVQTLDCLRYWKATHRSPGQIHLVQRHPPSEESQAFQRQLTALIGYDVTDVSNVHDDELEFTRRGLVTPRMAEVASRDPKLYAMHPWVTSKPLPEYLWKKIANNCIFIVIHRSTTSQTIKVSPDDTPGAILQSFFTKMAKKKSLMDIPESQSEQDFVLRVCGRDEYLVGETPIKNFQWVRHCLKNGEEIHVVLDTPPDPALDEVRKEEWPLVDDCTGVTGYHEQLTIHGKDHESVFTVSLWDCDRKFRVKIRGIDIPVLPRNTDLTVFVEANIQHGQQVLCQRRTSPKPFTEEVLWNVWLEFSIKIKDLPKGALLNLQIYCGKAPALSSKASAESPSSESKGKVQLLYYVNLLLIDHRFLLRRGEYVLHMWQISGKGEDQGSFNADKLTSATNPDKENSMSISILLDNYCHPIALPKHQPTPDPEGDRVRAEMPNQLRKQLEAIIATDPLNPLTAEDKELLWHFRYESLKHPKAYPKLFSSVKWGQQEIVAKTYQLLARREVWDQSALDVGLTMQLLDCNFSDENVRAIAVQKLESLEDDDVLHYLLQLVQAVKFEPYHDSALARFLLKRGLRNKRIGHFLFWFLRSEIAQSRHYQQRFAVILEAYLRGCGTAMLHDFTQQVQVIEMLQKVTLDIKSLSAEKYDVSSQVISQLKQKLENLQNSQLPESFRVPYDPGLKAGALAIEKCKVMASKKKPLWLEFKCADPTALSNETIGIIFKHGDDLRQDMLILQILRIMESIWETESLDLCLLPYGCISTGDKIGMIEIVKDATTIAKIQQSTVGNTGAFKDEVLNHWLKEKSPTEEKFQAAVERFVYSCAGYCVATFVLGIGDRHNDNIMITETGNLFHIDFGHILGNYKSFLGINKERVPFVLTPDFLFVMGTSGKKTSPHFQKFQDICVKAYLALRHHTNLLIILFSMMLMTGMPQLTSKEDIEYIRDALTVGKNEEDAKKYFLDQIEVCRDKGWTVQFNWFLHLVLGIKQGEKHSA
From the text: (§3) Materials and Methods. Compounds. […] Rabbit purified anti-phosphoSer473-Akt antibody, anti-Akt antibody, antiphospho Tyr1086-EGF-receptor antibody and anti-EGFR antibody were obtained from Cell Signaling Technology (Beverly, Mass.). Human recombinant p110α/p85α, p110β/p85α, p120 (and p110*/p85α PtdIns-3-kinases were obtained from Upstate (Charlottesville, Va.). Metformin hydrochloride was obtained from Spectrum Chemical (Gardena, Calif.), pioglitazone hydrochloride and recombinant human insulin from Sigma Chemical (St. Louis).
as §2

[9] = target: T2, p110β/p85α (Homo sapiens, UniProt P42338); experiment: as above; format: biochemical; details: recombinant enzyme
T2 construct: purchased Upstate (Charlottesville, Va.)
T2 sequence (P42338 whole entry): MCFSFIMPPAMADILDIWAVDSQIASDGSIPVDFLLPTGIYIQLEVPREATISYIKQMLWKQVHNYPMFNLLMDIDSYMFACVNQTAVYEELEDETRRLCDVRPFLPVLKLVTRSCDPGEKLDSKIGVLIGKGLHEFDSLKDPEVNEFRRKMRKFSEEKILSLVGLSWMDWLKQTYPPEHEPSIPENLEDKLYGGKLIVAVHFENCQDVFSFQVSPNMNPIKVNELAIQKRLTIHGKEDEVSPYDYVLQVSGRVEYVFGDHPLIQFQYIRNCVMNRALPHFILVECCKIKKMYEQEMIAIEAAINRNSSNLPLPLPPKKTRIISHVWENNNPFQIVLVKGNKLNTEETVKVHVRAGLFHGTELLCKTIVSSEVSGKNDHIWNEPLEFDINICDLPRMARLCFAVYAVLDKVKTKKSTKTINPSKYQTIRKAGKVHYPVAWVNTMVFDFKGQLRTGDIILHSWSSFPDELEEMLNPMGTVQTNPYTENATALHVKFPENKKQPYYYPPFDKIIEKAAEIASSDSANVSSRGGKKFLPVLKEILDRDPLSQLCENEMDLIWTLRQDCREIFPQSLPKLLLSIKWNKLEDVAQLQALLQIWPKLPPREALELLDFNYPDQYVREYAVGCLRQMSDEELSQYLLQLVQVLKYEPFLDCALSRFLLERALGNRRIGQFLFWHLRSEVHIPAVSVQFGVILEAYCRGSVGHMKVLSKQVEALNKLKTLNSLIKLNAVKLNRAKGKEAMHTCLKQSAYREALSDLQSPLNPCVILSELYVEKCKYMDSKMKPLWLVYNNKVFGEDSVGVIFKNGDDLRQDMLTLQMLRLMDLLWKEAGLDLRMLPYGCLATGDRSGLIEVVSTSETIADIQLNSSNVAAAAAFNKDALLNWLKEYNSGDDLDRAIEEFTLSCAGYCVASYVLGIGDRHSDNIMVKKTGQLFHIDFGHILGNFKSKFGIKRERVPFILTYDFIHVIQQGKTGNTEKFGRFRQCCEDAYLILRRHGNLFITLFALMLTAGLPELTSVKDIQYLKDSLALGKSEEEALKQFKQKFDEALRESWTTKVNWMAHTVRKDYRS
T2 sequence (P27986 whole entry partner): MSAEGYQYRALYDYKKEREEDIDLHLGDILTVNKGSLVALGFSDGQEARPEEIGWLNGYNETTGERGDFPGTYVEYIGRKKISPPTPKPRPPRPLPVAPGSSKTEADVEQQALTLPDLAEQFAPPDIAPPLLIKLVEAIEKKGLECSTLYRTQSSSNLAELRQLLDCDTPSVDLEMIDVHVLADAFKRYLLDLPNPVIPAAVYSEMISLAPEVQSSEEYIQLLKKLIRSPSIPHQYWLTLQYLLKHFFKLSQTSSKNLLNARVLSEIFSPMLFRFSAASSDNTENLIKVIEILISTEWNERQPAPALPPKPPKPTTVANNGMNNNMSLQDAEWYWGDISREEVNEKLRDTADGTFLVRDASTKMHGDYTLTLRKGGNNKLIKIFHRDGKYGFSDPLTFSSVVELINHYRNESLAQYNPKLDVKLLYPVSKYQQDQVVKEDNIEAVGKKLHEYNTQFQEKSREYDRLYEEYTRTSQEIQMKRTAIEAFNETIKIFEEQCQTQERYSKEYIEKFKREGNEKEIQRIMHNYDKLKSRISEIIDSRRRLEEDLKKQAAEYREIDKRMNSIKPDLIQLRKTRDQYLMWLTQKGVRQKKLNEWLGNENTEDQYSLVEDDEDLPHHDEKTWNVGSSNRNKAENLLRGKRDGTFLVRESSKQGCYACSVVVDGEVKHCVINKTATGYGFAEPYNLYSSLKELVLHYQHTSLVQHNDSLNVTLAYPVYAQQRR
From the text: as §3, §2

[10] = target: T3, p110δ/p85α (Homo sapiens, UniProt O00329); experiment: as above; format: biochemical; details: recombinant enzyme
T3 construct: purchased Upstate (Charlottesville, Va.)
T3 sequence (O00329 whole entry): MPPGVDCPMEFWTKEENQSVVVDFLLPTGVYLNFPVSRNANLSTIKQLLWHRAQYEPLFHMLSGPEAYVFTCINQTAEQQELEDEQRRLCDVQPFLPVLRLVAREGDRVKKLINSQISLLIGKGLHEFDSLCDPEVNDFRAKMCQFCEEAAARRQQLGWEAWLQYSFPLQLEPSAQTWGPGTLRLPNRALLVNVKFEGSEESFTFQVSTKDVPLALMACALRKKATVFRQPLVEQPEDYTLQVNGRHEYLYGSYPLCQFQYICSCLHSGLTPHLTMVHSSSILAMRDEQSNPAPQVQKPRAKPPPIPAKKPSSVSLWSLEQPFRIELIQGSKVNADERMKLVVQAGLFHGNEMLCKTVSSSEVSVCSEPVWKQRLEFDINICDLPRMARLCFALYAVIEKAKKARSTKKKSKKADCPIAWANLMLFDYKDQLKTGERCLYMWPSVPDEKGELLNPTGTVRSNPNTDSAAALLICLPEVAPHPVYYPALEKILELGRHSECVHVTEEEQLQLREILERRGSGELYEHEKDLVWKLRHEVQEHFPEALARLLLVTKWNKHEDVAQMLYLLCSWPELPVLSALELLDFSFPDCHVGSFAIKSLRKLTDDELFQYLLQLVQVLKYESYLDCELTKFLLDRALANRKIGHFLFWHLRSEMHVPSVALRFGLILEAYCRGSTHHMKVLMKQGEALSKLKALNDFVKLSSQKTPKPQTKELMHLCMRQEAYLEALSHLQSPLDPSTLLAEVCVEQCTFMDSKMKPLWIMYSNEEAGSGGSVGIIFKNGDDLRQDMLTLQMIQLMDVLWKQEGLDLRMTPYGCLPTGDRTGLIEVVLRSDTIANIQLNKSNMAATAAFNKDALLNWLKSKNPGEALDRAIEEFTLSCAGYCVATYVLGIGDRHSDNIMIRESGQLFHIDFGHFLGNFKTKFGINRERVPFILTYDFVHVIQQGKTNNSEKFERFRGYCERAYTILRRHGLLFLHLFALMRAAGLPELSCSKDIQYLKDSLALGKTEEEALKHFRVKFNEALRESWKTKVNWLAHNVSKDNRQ
T3 sequence (P27986 whole entry partner): as the sequence (P27986 whole entry partner) above
From the text: as §3, §2

[11] = test system: HT-29 colon cancer; experiment: Antitumor activity of PX-866 with gefitinib in HT-29 colon cancer; format: in vivo; details: PX-866 2 mg/kg orally 4 hours prior to gefitinib 75 mg/kg po (FIG. 13)
[12] = test system: mouse bone marrow; experiment: Bone marrow colony formation from treated mice; format: in vivo; details: C57B1/6 mice, PX-866 3 mg/kg po every other day for 15 doses
Protocol: Bone Marrow Colony Formation. After sacrifice, mouse bone marrow was extracted from each femur and red blood cells lysed with 0.2% hypotonic NaCl followed by the addition of a 1.6% hypertonic NaCl. Approximately 20,000 cells were plated in 1 ml of Methocult™ GF M3434 (Stemcell Technologies Inc, Vancouver, BC, Canada) containing 1% methylcellulose in […], 15% fbs, 1% bovine serum albumin, 10:g/ml recombinant human insulin, 200:g/ml humantransferrin, […] β-mercaptoethanol, 2 mM L-glutamine, 50 ng/ml rm stem cell factor, 10 ng/ml recombinant mouse interleukin-3, 10 ng/ml recombinant human interleukin-6, and 3 units/ml recombinant erythropoietin. Cells were plated in triplicate and grown at 37/C and 5% CO2 in a humid environment for 14 days before scoring. Colonies (>40 cells/colony) or clusters (3-40 cells) were scored and growth of colony-forming unit granulocyte, erythroid, macrophage, megakaryocyte (CFU-GEMM; burst-forming units-erythroid (BFU-E), colony-forming units granulocyte macrophage (CFU-GM), assessed using standard criteria. Qualitative observations were made on background levels of single cells.

[13] = Plasma insulin levels after PX-866; format: in vivo, C57B1/6 mice; details: PX-866 single dose of 10 mg/kg po (FIG. 10)
From the text: PX-866 and glucose tolerance.

[14] = test system: OvCaR-3 ovarian; experiment: Antitumor activity of wortmannin analogs, OvCaR-3 ovarian tumor (Table 1); format: in vivo; details: initial tumor vol 120 mm^3, 8 mg/kg/day ip Q1D × 9
[15] = initial tumor vol 60 mm^3, 4 mg/kg/day po Q1D × 9
[16] = initial tumor vol 60 mm^3, 12 mg/kg/day iv Q1D × 9
[17] = initial tumor vol 65 mm^3, 6 mg/kg/day ip Q1D × 9
[18] = initial tumor vol 65 mm^3, 9 mg/kg/day ip Q1D × 9
[19] = PX-866 iv 15 mg/kg Q3D × 3 combined with gemcitabine ip 150 mg/kg Q3D × 3
[20] = PX-866 po 5 mg/kg Q3D × 3 combined with gemcitabine ip 150 mg/kg Q3D × 3

C=CCN(/C=C1/C(=O)O[C@H](COC)[C@@]2(C)C1=C(O)C(=O)C1=C2[C@H](OC(C)=O)C[C@]2(C)C(=O)CC[C@@H]12)CC=C [PX-866]
Growth Delay [1, 15]: 6 days | Log10 cell kill [1, 15]: 0.9 | T/C % (optimal test/control) ([1]; initial tumor vol 60 mm^3, 4 mg/kg/day po Q1D × 9, day 21): 47 (21) % | Growth Delay [1, 16]: 5 days | Log10 cell kill [1, 16]: 0.7 | T/C % (optimal test/control) ([1]; initial tumor vol 60 mm^3, 12 mg/kg/day iv Q1D × 9, day 21): 45 (21) % | Growth Delay [1, 17]: 4 days | Log10 cell kill [1, 17]: 0.2 | T/C % (optimal test/control) ([1]; initial tumor vol 65 mm^3, 6 mg/kg/day ip Q1D × 9, day 32): 62 (32) % | Growth Delay [1, 18]: 8 days | Log10 cell kill [1, 18]: 0.4 | T/C % (optimal test/control) ([1]; initial tumor vol 65 mm^3, 9 mg/kg/day ip Q1D × 9, day 32): 26 (32) % | Tumor T/C %, PX-844 4 hrs before gefitinib ([2]; PX-866 IV 4 mg/kg QOD × 14, 4 hr before gefitinib 75 mg/kg po): 20.5% | Tumor T/C % ([2]; PX-866 IV 4 mg/kg QOD × 14 alone): 65.3% | Tumor T/C %, PX-844 4 hrs before gefitinib ([2]; PX-866 IV 9 mg/kg QOD × 14, 4 hr before gefitinib 75 mg/kg po): 22% and 22.3% | Tumor T/C % ([2]; PX-866 IV 9 mg/kg QOD × 14 alone, 9 mg/kg): 31% and 31.5% | Tumor T/C %, PX-844 4 hrs before gefitinib ([2]; PX-866 PO 1 mg/kg QOD × 14, 4 hr before gefitinib 75 mg/kg po): 40.8% | Tumor T/C % ([2]; PX-866 PO 1 mg/kg QOD × 14 alone): 54.8% | Tumor T/C %, PX-844 4 hrs before gefitinib ([2]; PX-866 PO 2.5 mg/kg QOD × 14, 4 hr before gefitinib 75 mg/kg po): 18% and 18.1% | Tumor T/C % ([2]; PX-866 PO 2.5 mg/kg QOD × 14 alone, 2.5 mg/kg): 41% and 40.8% | combination antitumor activity, large tumors ([2]; PX-866 with gefitinib, 600 mm3 A-549 tumor xenografts (FIG. 7B)): Increased combination antitumor activity | tumor T/Cs ([2]; administered long term, single agent (discussion)): around 50% | activity of combination with gefitinib by timing ([2]; alternating day schedule, preliminary studies, data not shown): more active when administered 4 hr before rather than 24 hr after gefitinib | effect upon tumor phospho-EGFR ([3]; PX-866 3 mg/kg po every other day for 5 days): no significant effect | effect upon tumor phospho-EGFR ([3]; PX-866 12 mg/kg iv every other day for 5 days): no significant effect | effect upon tumor phospho-EGFR ([3]; combination of gefitinib and PX-866): inhibited both | enhancement of the growth inhibition by gefitinib [4]: did not enhance | inhibition of HT-29 xenograft phosphor-Akt ([5]; dose dependency, PX-866, PX-867 and PX-881 compared (FIG. 1A)): greatest inhibitory activity | inhibition of HT-29 xenograft phosphor-Akt over time by route ([5]; oral compared with intraperitoneal and intravenous (FIG. 1B)): more consistent inhibition over a longer period of time | Combined Growth delay days [6, 19]: 8 days | Combined TGI % [6, 19]: 49% | Combined log cell kill [6, 19]: 0.2 | Combined Growth delay days [6, 20]: 19 days | Combined TGI % [6, 20]: 60% | Combined log cell kill [6, 20]: 0.5 | Alone Growth delay days ([6]; PX-866 iv 15 mg/kg Q3D × 3): 4 days | Alone TGI % ([6]; PX-866 iv 15 mg/kg Q3D × 3): 16% | Alone log cell kill ([6]; PX-866 iv 15 mg/kg Q3D × 3): 0.1 | Alone Growth delay days ([6]; PX-866 po 5 mg/kg Q3D × 3): 0 days | Alone TGI % ([6]; PX-866 po 5 mg/kg Q3D × 3): 14% | Alone log cell kill ([6]; PX-866 po 5 mg/kg Q3D × 3): 0 | IC50 [7]: 25 nM | IC50 [8]: 9 nM | IC50 [9]: > 300 nM | IC50 [10]: 2.7 nM | antitumor effect with gefitinib [11]: increased the antitumor effect of gefitinib | erythroid lineage CFU-GEMM, BFU-E or CFU-E [12]: no significant change | myeloid CFU-GM ([12]; ±S.E., n=4): 168±59 colonies per 60,000 bone marrow cells plated | duration of increase in plasma insulin levels [13]: up to 5 hr | Growth Delay [14]: 12 days | Log10 cell kill [14]: 1.2 | T/C % (optimal test/control) ([14]; day 40): 30 (40) %
